{"source": "patent US20250163056A1", "about": "“NONMUSCLE MYOSIN II INHIBITORS” (The University of Florida Research Foundation, Inc., priority 2018, published 2025)", "key": {"[1]": {"test_system": "hiPS cardiomyocytes (Cor.4U CMs)", "test": "Cardiac safety assay 1: beating parameters of cardiomyocytes (xCELLigence RTCA Cardio)", "assay_type": "cell-based, human", "conditions": "hiPS-derived cardiomyocytes", "protocol": "The spontaneous contractions of cardiomyocytes (CMs) is measured label-free in real time using the ACEA xCELLigence RTCA Cardio instrument. All measurements are performed at 37° C. in a cell culture incubator, allowing for spontaneous beating of CMs at physiological conditions. Cor.4U CMs are seeded at 3×10^4 cells/well in 180 μl/well maintenance medium. Prior to seeding, a background impedance measurement (plate plus medium) is performed. The contraction of CMs involves cyclic modulation of cell morphology and adhesion inducing a delta change in impedance. From the cyclic changes in impedance a beating frequency, amplitude and effects on beating pattern can be calculated. Time point “0” (baseline) is recorded 10× for 20 seconds at 1 minute intervals. Thereafter, compounds and control (0.1% DMSO) are added to the wells and effects are measured 30 minutes later. Vehicle control is 0.1% DMSO and positive control is 100 nM isoproterenol. Compounds are tested at 0.1, 0.3, 1.0 and 3.0 uM. Data is collected at 5, 10, 15, 20 and 30 minutes, and 1, 4, 6, 12 and 24 hours post-incubation."}, "Male Sprague-Dawley rats": {"test_system": "Male Sprague-Dawley rats", "test": "Cardiac safety assay 2: in vivo echocardiography with IV drug infusion", "design": "species or system rat", "source_text": "The first (results shown in Table 2) assesses the effects of our compounds on the contractility of cardiomyocytes. As the cardiac Ki increases, the contractility effects dramatically decrease. However, unlike in the adult heart, the hiPS cardiomyocytes used in this assay express NMII, which likely accounts for the residual contractility effects seen at the highest dose tested. For that reason, we moved to in vivo echocardiograms, which assess contractility in live animals (FIG. 7). […] Accordingly, the compounds of the invention and compounds used for practice of methods of the invention can produce less cardiac toxicity than does blebbistatin.\nMale Sprague-Dawley rats are acclimated for approximately 1 week prior to use. Rats are lightly anesthetized using isoflurane and an intravenous catheter is placed for dosing purposes. Baseline 2-D echocardiograms are collected (standard SAX B-mode and M-mode at the level of the papillary muscle). Each rat receives a total of 3 IV treatments. Vehicle (10% DMSO, 10% Tween 80 and 80% water) is first administered, followed 10 minutes later by two subsequent infusions, separated by 10 minutes. Infusions of the positive control, Blebbistatin, are delivered at 0.5 mg/kg IV. […] Measurements including fractional shortening, ejection fraction, heart rate and cardiac output are calculated."}, "[2]": {"test": "Brain and plasma distribution after IP dosing", "assay_type": "in vivo, mice", "conditions": "10 mg/kg", "protocol": "FIG. 4: Brain and plasma distribution of blebbistatin after IP dosing at 10 mg/kg in mice.\n(§1) The potential for systemic NMII inhibition to selectively target METH-associated memories in the way that intra-AMY administration does was also investigated. […] IP administered Blebbistatin also disrupts reconsolidation of memories for cocaine, nicotine and mephedrone, a result with additional potential therapeutic relevance in treating relapse^75-76. In addition, the BLC spine density increase that accompanies a METH-associated memory is reversed by Blebbistatin (FIG. 3C), without altering the spine density increase associated with a fear memory (FIG. 3D)^65, 74."}, "METH seeking": {"test_system": "METH seeking", "test": "Context-induced reinstatement of METH seeking (animal model of relapse)", "assay_type": "in vivo", "conditions": "single intra-BLC administration"}, "fear memory": {"test_system": "fear memory", "test": "Auditory fear memory after systemic NMII inhibition", "assay_type": "in vivo", "conditions": "IP administered", "source_text": "FIG. 3(A,B,C,D): Systemic NMII inhibition selectively targets the storage of (A) a METH-associated memory, (B) having no effect on an auditory fear memory. Similarly, spine density associated with a METH-associated memory (C), but not a fear memory (D), is reduced.\nas §1"}, "[3]": {"test": "Solubility (quoted in the Table 2 note)", "assay_type": "physicochemical"}, "[4]": {"test": "Photostability, percentage remaining undegraded under illumination or in the dark"}}}
{"smiles": "Cc1ccc2c(c1)C(=O)[C@]1(O)CCN(c3ccccc3)C1=N2", "note": "[Blebbistatin, reference compound]", "values": [{"measurement": "Qualitative impact on contractility (e.g. Full = Complete inhibition of contraction)", "setting": "[1]; 0.1 uM", "value": "No"}, {"measurement": "Qualitative impact on contractility (e.g. Full = Complete inhibition of contraction)", "setting": "[1]; 0.3 uM", "value": "Partial"}, {"measurement": "Qualitative impact on contractility (e.g. Full = Complete inhibition of contraction)", "setting": "[1]; 1.0 uM", "value": "1.0u M: Full 3.0 uM: Full"}, {"measurement": "Change in amplitude at 1 uM @ 15 min", "setting": "[1]; 1 uM, 15 min", "value": "−57.9 ± 12.8", "unit": "%"}, {"measurement": "Qualitative impact on contractility (e.g. Full = Complete inhibition of contraction)", "setting": "[1]; 3.0 uM", "value": "1.0u M: Full 3.0 uM: Full"}, {"measurement": "contractility effects in in vivo echocardiograms", "setting": "Male Sprague-Dawley rats", "value": "substantial contractility effects"}, {"measurement": "brain levels", "setting": "[2]", "value": 90, "unit": "µM"}, {"measurement": "context-induced reinstatement of METH seeking", "setting": "METH seeking", "value": "prevents context-induced reinstatement of METH seeking"}, {"measurement": "effect on a fear memory", "setting": "fear memory", "value": "no similarly immediate effect on a fear memory"}, {"measurement": "solubility", "setting": "[3]", "value": 9.3, "unit": "µM"}, {"measurement": "Photostability 4 hours", "setting": "[4]; percentage remaining undegraded after 4 hours illumination", "value": 82.9, "unit": "%"}, {"measurement": "Photostability 24 hours", "setting": "[4]; percentage remaining undegraded after 24 hours illumination", "value": 9.3, "unit": "%"}, {"measurement": "Photostability Dark (24 h)", "setting": "[4]; percentage remaining undegraded in the dark, 24 h", "value": ">99", "unit": "%"}]}
